Laboratory results from patent publication EP0494622A1, “Bridged cyclic ketal derivatives” (priority 1991, dated 1992).
Converted amounts (≈) assume the structure as drawn. Where a name gives a salt, the structure may show the parent alone.

Legend:
squalene synthase = target: T1, squalene synthase (Rattus norvegicus, UniProt Q02769); assay: Inhibition of squalene synthase in rat liver homogenate with [2-14C]farnesylpyrophosphate as substrate; [14C]squalene separated by TLC and counted by liquid scintillation; assay type: biochemical; details: concentration giving 50% inhibition of [14C]squalene production in a 30 minute assay, read-out: IC₅₀
T1 construct: from tissue; host or cells: rat liver homogenate
T1 sequence (Q02769 1-416): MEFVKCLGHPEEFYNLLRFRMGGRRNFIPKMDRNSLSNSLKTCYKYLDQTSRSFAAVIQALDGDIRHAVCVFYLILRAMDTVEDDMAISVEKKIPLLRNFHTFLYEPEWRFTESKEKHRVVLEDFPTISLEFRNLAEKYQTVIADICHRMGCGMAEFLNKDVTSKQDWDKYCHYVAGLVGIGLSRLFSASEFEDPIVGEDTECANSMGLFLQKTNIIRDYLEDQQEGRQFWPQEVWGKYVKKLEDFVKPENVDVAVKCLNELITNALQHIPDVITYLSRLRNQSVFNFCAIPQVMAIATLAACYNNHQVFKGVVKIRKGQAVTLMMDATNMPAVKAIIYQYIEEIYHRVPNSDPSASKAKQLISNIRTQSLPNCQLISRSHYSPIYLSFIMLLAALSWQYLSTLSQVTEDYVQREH
Method: Acta, Volume 877, 50-60 (1986) and modified to include measurement of cholesterol by high performance liquid chromatography (h.p.l.c.).
(§1) [¹⁴C] Squalene was separated from unreacted substrate on thin layer chromatography plates and determined by liquid scintillation counting. Inhibition of squalene synthase was quantified by incubating rat liver homogenate with various concentrations of the test compound in the presence of[2-¹⁴C] farnesylpyrophosphate. The concentration of compound giving 50% inhibition of [¹⁴C] squalene production in a 30 minute assay was taken as the IC₅₀ value. […] In practice, a series of agar plates, each having the test compound incorporated at a particular concentration, was inoculated with a standard culture of a clinically relevant pathogen, for example Candida albicans, and each plate was then incubated at 37 °C for 24 to 48 hours depending on the pathogen. The plates were then examined for the presence or absence of growth of the fungus and the appropriate MIC was noted. In this test the title compounds in Examples 19, Example 3 Compound 1 and Example 7 Compound 1 had MICs in the range of 1 to 31 µg/ml against a variety of clinically relevant pathogens.

[1] = tested on: a variety of clinically relevant pathogens; assay: In vitro antifungal activity: minimum inhibitory concentration (MIC) on agar plates containing the test compound; assay type: cell-based; details: Candida albicans, read-out: MICs
Method: as §1, with “The in vitro evaluation of the anti-fungal activity of compounds of the invention can be performed by determining the minimum inhibitory concentration (MIC) which is the concentration of the test compound in a suitable medium at which growth of a particular microorganism fails to occur. […] A. […] [¹⁴C] Squalene” for “[¹⁴C] Squalene”, “was noted.” for “was noted. In this test the title compounds in Examples 19, Example 3 Compound 1 and Example 7 Compound 1 had MICs in the range of 1 to 31 µg/ml against a variety of clinically relevant pathogens.”

SMILES	IC50 (squalene synthase) [nM]	MIC [1] [µg/mL]
C=C(CC[C@]12OC[C@@](O)(C(=O)O)[C@](C(=O)O)(O1)[C@H](OC(=O)/C=C/[C@@H](C)C[C@@H](C)CC)[C@H]2O)[C@@H](OC(C)=O)[C@H](C)Cc1ccccc1 (relative stereo) [Example 3 Compound 1, [1S-[1α(4R*,5S*),4β,5α,6α(2E,4R*,6R*),7β]] 1-(4-Acetyloxy-5-methyl-3-methylene-6-phenylhexyl)-4,6,7-trihydroxy-2,8-dioxabicyclo [3.2.1]octane-4,5-dicarboxylic acid, 6-(4,6-dimethyl-2-octenoate)]	< 100	1 to 31 (≈ 1.55 to 47.9 µM)
C=C(CC[C@]12OC[C@@](O)(C(=O)OC)[C@](C(=O)O)(O1)[C@H](OC(=O)/C=C/[C@@H](C)C[C@@H](C)CC)[C@H]2O)[C@@H](OC(C)=O)[C@H](C)Cc1ccccc1 (relative stereo) [Example 3 Compound 2, [1S-[1α(4R*,5S*),4β,5α,6α(2E,4R*,6R*),7β]] 1-(4-acetyloxy-5-methyl-3-methylene-6-phenylhexyl)-4,6,7-trihydroxy-2,8-dioxabicyclo[3.2.1]octane-4,5-dicarboxylic acid, 6-(4,6-dimethyl-2-octenoate), 4-methyl ester]	< 100	–
C=C(CC[C@]12O[C@H](CO)[C@@](O)(C(=O)O)[C@](C(=O)O)(O1)[C@H](OC(=O)/C=C/[C@@H](C)C[C@@H](C)CC)[C@H]2O)[C@@H](OC(C)=O)[C@H](C)Cc1ccccc1 (relative stereo) [Example 7 Compound 1, [1S-[1α(4R*,5S*),3α,4β,5α,6α(2E,4R*,6R*),7β]] 1-(4-Acetyloxy-5-methyl-3-methylene-6-phenylhexyl)-3-hydroxymethyl-4,6,7-trihydroxy-2,8-dioxabicyclo[3.2.1]octane-4,5-dicarboxylic acid, 6-(4,6-dimethyl-2-octenoate)]	< 100	1 to 31 (≈ 1.48 to 45.8 µM)
C=C(CC[C@]12O[C@H](CO)[C@@](O)(C(=O)OC)[C@](C(=O)O)(O1)[C@H](OC(=O)/C=C/[C@@H](C)C[C@@H](C)CC)[C@H]2O)[C@@H](OC(C)=O)[C@H](C)Cc1ccccc1 (relative stereo) [Example 7 Compound 2, [1S-[1α(4R*,5S*),3α,4β,5α,6α(2E,4R*,6R*),7β]] 1-(4-acetyloxy-5-methyl-3-methylene-6-phenylhexyl)-3-hydroxymethyl-4,6,7-trihydroxy-2,8-dioxabicyclo[3.2.1]octane-4,5-dicarboxylic acid, 6-(4,6-dimethyl-2-octenoate),4-methyl ester]	< 100	–
C=C(CC[C@]12O[C@H](CO)[C@@](O)(C(=O)O)[C@](C(=O)O)(O1)[C@H](OC(=O)CC[C@@H](C)C[C@@H](C)CC)[C@H]2O)[C@@H](OC(C)=O)[C@H](C)Cc1ccccc1 (relative stereo) [Example 10, [1S-[1α(4R*,5S*),3α,4β,5α,6α(4S*,6R*),7β]] 1-(4-Acetyloxy-5-methyl-3-methylene-6-phenylhexyl)-3-hydroxymethyl-4,6,7-trihydroxy-2,8-dioxabicyclo[3.2.1]octane-4,5-dicarboxylic acid, 6-(4,6-dimethyloctanoate), dipotassium salt]	< 100	–
C=C(CC[C@]12O[C@H](CO)[C@@](O)(C(=O)O)[C@](C(=O)O)(O1)[C@H](OC(=O)/C=C/[C@@H](C)C[C@@H](C)CC)[C@H]2O)[C@@H](O)[C@H](C)Cc1ccccc1 (relative stereo) [Example 11, [1S-[1α(4R*,5S*),3α,4β,5α,6α(2E,4R*,6R*),7β]] 1-(4-Hydroxy-5-methyl-3-methylene-6-phenylhexyl)-3-hydroxymethyl-4,6,7-trihydroxy-2,8-dioxabicyclo[3.2.1]octane-4,5-dicarboxylic acid, 6-(4,6-dimethyl-2-octenoate)]	< 100	–
C=C(CC[C@]12O[C@H](CO)[C@@](O)(C(=O)O)[C@](C(=O)O)(O1)[C@H](OC(=O)CC[C@@H](C)C[C@@H](C)CC)[C@H]2O)[C@@H](O)[C@H](C)Cc1ccccc1 (relative stereo) [Example 25, [1S-[1α(4R*,5S*),3α,4β,5α,6α(4S*,6R*),7β]] 1-(4-Hydroxy-5-methyl-3-methylene-6-phenylhexyl)-3-hydroxymethyl-4,6,7-trihydroxy-2,8-dioxabicyclo[3.2.1]octane-4,5-dicarboxylic acid, 6-(4,6-dimethyloctanoate)]	< 100	–
